Test results published in patent US20260347372A1, “SMALL MOLECULE INHIBITORS OF KRAS G12D MUTANT” (MERCK SHARP & DOHME LLC, priority 2023, published 2026).
pIC50: −log10 of the molar value.

Key:
KRAS G12D = KRAS G12D (Homo sapiens, UniProt P01116, G12D); test: SOS-catalyzed nucleotide exchange assay, KRAS G12D (Procedure A); assay type: biochemical; details: guanine nucleotide exchange (GNE)
Outline: (§1)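 Preformed TR-FRET complex of biotinylated KRAS (G12C carries C51S/C80L/C118S; others native sequence), Bodipy-GDP and Tb-streptavidin preincubated with compound 60 min at room temperature. Exchange started with human SOS plus 3 mM GTP for 60 min (G13D 30 min). Final RAS/SOS: G12C 3/40 nM; WT, G12D 1/40 nM; G13D 1.25/0 nM. 520/495 nm ratio normalised, fitted to four-parameter logistic.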

KRAS WT = KRAS WT (Homo sapiens, UniProt P01116); test: SOS-catalyzed nucleotide exchange assay, KRAS WT (Procedure A); assay type: biochemical; details: GNE
KRAS WT, sequence (P01116 with tags, fused parts or gaps isoform P01116-2): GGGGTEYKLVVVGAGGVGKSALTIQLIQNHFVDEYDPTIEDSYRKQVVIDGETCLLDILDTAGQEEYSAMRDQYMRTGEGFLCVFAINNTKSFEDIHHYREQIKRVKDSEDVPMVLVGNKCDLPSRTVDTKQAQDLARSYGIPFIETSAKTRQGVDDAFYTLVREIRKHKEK
Outline: as §1

KRAS G12C = KRAS G12C (Homo sapiens, UniProt P01116, C118S/C51S/C80L/G12C); test: SOS-catalyzed nucleotide exchange assay, KRAS G12C (Procedure A); assay type: biochemical; details: GNE
KRAS G12C, sequence (P01116 with tags, fused parts or gaps isoform P01116-2 G12C/C51S/C80L/C118S): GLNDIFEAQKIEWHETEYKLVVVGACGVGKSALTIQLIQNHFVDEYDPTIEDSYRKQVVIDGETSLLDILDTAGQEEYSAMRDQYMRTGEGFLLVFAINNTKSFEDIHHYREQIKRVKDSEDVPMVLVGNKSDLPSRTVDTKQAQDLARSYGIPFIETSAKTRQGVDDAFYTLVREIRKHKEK
Outline: as §1

KRAS G12V = KRAS G12V (Homo sapiens, UniProt P01116, G12V); test: SOS-catalyzed nucleotide exchange assay, KRAS G12V (Procedure A); assay type: biochemical; details: GNE
KRAS G12V, sequence (P01116 with tags, fused parts or gaps isoform P01116-2 G12V): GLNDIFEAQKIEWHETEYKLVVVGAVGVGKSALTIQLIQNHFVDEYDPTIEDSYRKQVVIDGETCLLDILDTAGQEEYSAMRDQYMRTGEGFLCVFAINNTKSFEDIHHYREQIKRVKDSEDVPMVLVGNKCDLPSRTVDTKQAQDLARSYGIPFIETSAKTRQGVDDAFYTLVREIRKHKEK
Outline: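 Biotinylated KRAS G12V was loaded with Bodipy-GDP alongside Terbium-streptavidin to form a TR-FRET complex, which was preincubated with compounds for 60 minutes in 384-well plates. Human SOS protein and unlabeled GTP were then added for 90 minutes, giving final concentrations of 1.25 nM KRAS-G12V, 160 nM SOS and 3 mM GTP. The 520/495 nm emission ratio was read on an Envision.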

KRAS G13D = KRAS G13D (Homo sapiens, UniProt P01116, G13D); test: SOS-catalyzed nucleotide exchange assay, KRAS G13D (Procedure A); assay type: biochemical; details: GNE
KRAS G13D, sequence (P01116 with tags, fused parts or gaps isoform P01116-2 G13D): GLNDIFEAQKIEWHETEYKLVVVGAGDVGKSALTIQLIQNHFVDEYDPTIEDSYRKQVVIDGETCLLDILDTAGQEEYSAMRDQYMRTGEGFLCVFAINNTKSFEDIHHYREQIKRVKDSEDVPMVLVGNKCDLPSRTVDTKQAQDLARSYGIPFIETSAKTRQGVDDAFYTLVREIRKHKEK
Outline: as §1

HRAS = HRAS (Homo sapiens, UniProt P01112); test: SOS-catalyzed nucleotide exchange assay, HRAS (Procedure A); assay type: biochemical; details: GNE
HRAS, sequence (P01112 with tags, fused parts or gaps): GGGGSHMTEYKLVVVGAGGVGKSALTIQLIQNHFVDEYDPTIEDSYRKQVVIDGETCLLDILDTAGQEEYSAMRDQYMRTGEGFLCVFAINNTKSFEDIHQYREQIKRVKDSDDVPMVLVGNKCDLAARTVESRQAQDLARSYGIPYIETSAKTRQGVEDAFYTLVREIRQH
Outline: (§2)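 Compounds were preincubated 60 min with a biotinylated RAS·Bodipy-GDP/Tb-streptavidin TR-FRET complex, and exchange was started with human SOS plus 3 mM GTP at RT. RAS/SOS: G12C 3 nM/40 nM, WT and G12D 1 nM/40 nM, all 60 min; G13D 1.25 nM/0 nM, 30 min. 520/495 ratio normalized to DMSO and saturating inhibitor, four-parameter fit.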

NRAS = NRAS (Homo sapiens, UniProt P01111); test: SOS-catalyzed nucleotide exchange assay, NRAS (Procedure A); assay type: biochemical; details: GNE
NRAS, sequence (P01111 with tags, fused parts or gaps): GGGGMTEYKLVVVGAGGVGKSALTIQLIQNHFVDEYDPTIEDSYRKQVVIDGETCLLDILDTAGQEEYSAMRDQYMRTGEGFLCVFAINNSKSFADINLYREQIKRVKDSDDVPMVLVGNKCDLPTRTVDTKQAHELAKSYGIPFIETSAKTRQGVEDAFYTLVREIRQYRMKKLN
Outline: as §2

PANC08.13 cells = molecular target: T1, PANC08.13 cells (Homo sapiens, UniProt P01116, G12D); test: Cellular phospho-ERK assay, PANC08.13 cells (KRAS G12D); assay type: cell-based; details: 2 hours, read-out: PANCO 813 pERK IC50
T1 construct: p-ERK/total ERK AlphaSureFire read-out
T1 sequence (P01116 1-188 isoform P01116-2 G12D): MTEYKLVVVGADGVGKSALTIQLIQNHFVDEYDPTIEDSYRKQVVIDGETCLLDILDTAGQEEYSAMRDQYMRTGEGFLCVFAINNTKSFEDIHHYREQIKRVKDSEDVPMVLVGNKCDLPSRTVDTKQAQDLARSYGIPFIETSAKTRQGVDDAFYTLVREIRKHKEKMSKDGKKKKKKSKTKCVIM
Protocol: Procedure for Cellular Phospho-ERK Assay in KRAS Wild Type and Mutant (G12D, G12V) Cell Lines
PANC08.13 cells (ATCC® CRL-2551™), containing homozygous KRAS-G12D activating mutation, were cultured in growth medium made of RPMI1640-GlutaMAX™-I (ThermoFisher Scientific 61870) containing 15% heat inactivated fetal bovine serum (ThermoFisher Scientific 10091148)). AsPC-1 cells (ATCC® CRL-1682™), containing homozygous KRAS-G12D activating mutation, were cultured in T150 flask in growth medium (RPMI medium 1640-GlutaMAX™-I (ThermoFisher Scientific 61870) containing 10% fetal bovine serum (ThermoFisher Scientific 10091148)).
Cells for the assay were harvested in growth medium after TrypLE (ThermoFisher scientific 12604021) digestion and were seeded in a 384-well collagen coated cell culture plate (Corning 356702) at a density of 10,000-15,000 cells/20 μL/well, and incubated at 37° C., 5% CO2 overnight. The compound (with 10 mM stock concentration) dose-response titrations were prepared [30 μM final ERK detection assay concentration and 1:3 dilutions, 10-point dose response] and appropriate amounts (270 nL) of test compounds were dispensed in a 384-well intermediate plate using an Echo 550 liquid handler. 30 μL/well of RPMI medium 1640-GlutaMAX™-I was added to the intermediate plate and the contents of the intermediate plate (10 μL/well) were then transferred to the 384-well collagen coated cell culture plate, which was incubated at 37° C., 5% CO2 for 2 hours. After removal of medium from the collagen coated cell culture plate, cells were lysed in lysis buffer from Alpha SureFire® Ultra™ Multiplex p-ERK and total ERK assay kit (PerkinElmer MPSU-PTERK) containing Halt™ Protease and Phosphatase inhibitor cocktail (ThermoFisher Scientific 78446) at room temperature with constant shaking at 300 rpm for 30 minutes. The cell lysates were then transferred to an OptiPlate-384 plate (PerkinElmer 6005620), and the phosphorylation of ERK (p-ERK) and total ERK levels were detected by Alpha SureFire® Ultra™ Multiplex p-EEK kit and total ERK assay kit (PerkinElmer MPSU-PTERK) following the manufacturer's protocol. Assay plates were read on a EnVision Multimode Plate Reader (PerkinElmer), and the ratio of p-ERK vs. total ERK in each well was used as the final readout. Dose response curves were analyzed using a 4-parameter logistic model to calculate IC50 values using Spotfire software.

AsPC-1 cells = molecular target: T2, AsPC-1 cells (Homo sapiens, UniProt P01116, G12D); test: Cellular phospho-ERK assay, AsPC-1 cells (KRAS G12D); assay type: cell-based; details: 2 hours, read-out: AsPC1 pERK IC50
T2 construct: p-ERK/total ERK AlphaSureFire read-out
T2 sequence (P01116 1-188 isoform P01116-2 G12D): as above
Outline: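 PANC08.13 or AsPC-1 cells (homozygous KRAS G12D) were seeded overnight, then treated for 2 h at 37 °C with a 10-point 1:3 titration from 30 μM. Lysates were assayed by AlphaLISA SureFire for p-ERK and total ERK. IC50 came from a 4-parameter fit of the p-ERK/total ERK ratio.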

KRAS G12D, sequence (P01116 with tags, fused parts or gaps isoform P01116-2 G12D): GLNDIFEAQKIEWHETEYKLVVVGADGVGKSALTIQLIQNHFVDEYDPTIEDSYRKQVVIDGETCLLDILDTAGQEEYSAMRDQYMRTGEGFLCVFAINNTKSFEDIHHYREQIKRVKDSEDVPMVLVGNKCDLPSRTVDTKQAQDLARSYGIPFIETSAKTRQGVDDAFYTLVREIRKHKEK

pIC50 (KRAS G12D) | pIC50 (KRAS WT) | pIC50 (KRAS G12C) | pIC50 (KRAS G12V) | pIC50 (KRAS G13D) | pIC50 (HRAS) | pIC50 (NRAS) | pIC50 (PANC08.13 cells) | pIC50 (AsPC-1 cells) | SMILES
7.85 | 5.19 | 6.19 | 5.45 | 5.78 | < 4.96 | < 4.96 | 6.86 | 6.34 | Cc1cc2[nH]ncc2c(-c2nccc3c4c(N5C[C@H]6CC[C@@H](C5)N6)nc(OC[C@@]56CCCN5C[C@H](F)C6)nc4n(C)c23)c1C(F)(F)F (single isomer, unassigned) [Ex-1]
7.39 | – | 5.81 | – | 6.35 | < 4.96 | < 4.96 | 6.50 | 6.31 | C#Cc1cccc2cccc(-c3nccc4c5c(N6C[C@H]7CC[C@@H](C6)N7)nc(OC[C@@]67CCCN6C[C@H](F)C7)nc5n(C)c34)c12 [Ex-9, 4-((1R,5S)-3,8-diazabicyclo[3.2.1]octan-3-yl)-8-(8-ethynylnaphthalen-1-yl)-2-(((2R,7aS)-2-fluoro-tetrahydro-1H-pyrrolizin-7a(5H)-yl)methoxy)-9-methyl-9H-py-rido[4′,3′:4,5]pyrro-lo[2,3-d]pyrimidine]
5.30 | < 4.95 | < 4.96 | < 4.95 | < 4.96 | < 4.96 | < 4.96 | < 5.00 | – | Nc1nc2c(-c3nccc4c3sc3nc(OC[C@@]56CCCN5C[C@H](F)C6)nc(N5C[C@H]6CC[C@@H](C5)N6)c34)c(F)cc(F)c2o1 [Ex-15, 4-(4-((1R,5S)-3,8-diazabicyclo[3.2.1]octan-3-yl)-2-(((2R,7aS)-2-fluorotetrahydro-1H-pyrrolizin-7a(5H)-yl)methoxy)pyrido[4′,3′:4,5]thieno [2,3-d]pyrimidin-8-yl)-5,7-difluorobenzo[d]oxazol-2-amine]
7.62 | < 4.95 | < 4.96 | < 4.95 | < 4.96 | < 4.96 | < 4.96 | 5.79 | – | N#Cc1c(N)sc2c(F)ccc(-c3nccc4c3sc3nc(OC[C@@]56CCCN5C[C@H](F)C6)nc(N5C[C@H]6CC[C@@H](C5)N6)c34)c12 [Ex-17, 4-(4-((1R,5S)-3,8-diazabicyclo[3.2.1]octan-3-yl)-2-(((2R,7aS)-2-fluorotetrahydro-1H-pyrrolizin-7a(5H)-yl)methoxy)pyrido[4′,3′:4,5]thieno [2,3-d]pyrimidin-8-yl)-2-amino-7-fluorobenzo[b] thiophene-3-carbonitrile]
5.99 | < 4.95 | < 4.96 | < 4.95 | < 4.96 | < 4.96 | < 4.96 | 5.54 | – | Cc1cc2[nH]ncc2c(-c2nccc3c2sc2nc(OC[C@]4(CO)CC4(F)F)nc(N4C[C@H]5CC[C@@H](C4)N5)c23)c1C(F)(F)F [Ex-25, ((1R)-1-(((4-((1R,5S)-3,8-diazabicyclo[3.2.1]octan-3-yl)-8-(6-methyl-5-(trifluoromethyl)-1H-indazol-4-yl)pyrido[4′,3′:4,5]thieno[2,3-d]pyrimidin-2-yl)oxy)methyl)-2,2-difluorocyclopropyl)methanol]
6.23 | < 4.95 | < 4.96 | < 4.95 | 5.31 | < 4.96 | < 4.96 | 5.40 | – | Cc1cc2[nH]ncc2c(-c2nccc3c4c(N5C[C@H]6CC[C@@H](C5)N6)nc(OC[C@]5(CO)CC5(F)F)nc4n(C)c23)c1C(F)(F)F [Ex-53, ((1R)-1-(((4-((1R,5S)-3,8-diazabicyclo[3.2.1]octan-3-yl)-9-methyl-8-(6-methyl-5-(trifluoromethyl)-1H-indazol-4-yl)-9H-pyrido[4′,3′:4,5]pyrrolo[2,3-d]pyrimidin-2-yl)oxy)methyl)-2,2-difluorocyclopro-pyl)methanol]
6.19 | < 4.95 | 5.07 | < 4.95 | 5.81 | < 4.96 | < 4.96 | < 5.00 | – | Cn1c2nc(OC[C@]3(CO)CC3(F)F)nc(N3C[C@H]4CC[C@@H](C3)N4)c2c2ccnc(-c3ccc(F)c4sc(N)c(C#N)c34)c21 [Ex-62, 4-(4-((1R,5S)-3,8-diazabicyclo[3.2.1]octan-3-yl)-2-(((R)-2,2-difluoro-1-(hydroxymethyl)cyclopro-pyl)methoxy)-9-methyl-9H-pyrido[4′,3′:4,5]pyrrolo[2,3-d]pyrimidin-8-yl)-2-amino-7-fluorobenzo[b]thiophene-3-carbonitrile]
7.13 | < 4.95 | < 4.96 | < 4.95 | < 4.96 | < 4.96 | < 4.96 | < 5.00 | – | Cn1c2nc(OC[C@]3(CO)CC3(F)F)nc(N3C[C@H]4CC[C@@H](C3)N4)c2c2ccnc(-c3c(F)cc(F)c4sc(N)c(C#N)c34)c21 [Ex-63, 4-(4-((1R,5S)-3,8-diazabicyclo[3.2.1]octan-3-yl)-2-(((R)-2,2-difluoro-1-(hydroxymethyl)cyclopro-pyl)methoxy)-9-methyl-9H-pyrido[4′,3′:4,5]pyrrolo[2,3-d]pyrimidin-8-yl)-2-amino-5,7-difluorobenzo[b]thiophene-3-carbonitrile]
6.70 | 5.20 | 5.77 | < 4.95 | 5.82 | < 4.96 | < 4.96 | 5.90 | – | Cc1cc2[nH]ncc2c(-c2nccc3c4c(N5CC[C@H]6NCC[C@H]65)nc(OC[C@@]56CCCN5C[C@H](F)C6)nc4n(C)c23)c1C(F)(F)F [Ex-66, 2-(((2R,7aS)-2-fluorotetrahydro-1H-pyrrolizin-7a(5H)-yl)methoxy)-4-((3aR,6aR)-hexahydropyrrolo[3,2-b]pyrrol-1(2H)-yl)-9-methyl-8-(6-methyl-5-(trifluoromethyl)-1H-indazol-4-yl)-9H-pyrido[4′,3′:4,5]pyrrolo[2,3-d]pyrimidine]
6.14 | < 4.95 | < 4.96 | < 4.95 | < 4.96 | < 4.96 | < 4.96 | 5.58 | – | Cc1cc2[nH]ncc2c(-c2nccc3c2oc2nc(OC[C@@]45CCCN4C[C@H](F)C5)nc(N4C[C@H]5CC[C@@H](C4)N5)c23)c1C(F)(F)F [Ex-78, 4-((1R,5S)-3,8-diazabicyclo[3.2.1]octan-3-yl)-2-(((2R,7aS)-2-fluorotetrahydro-1H-pyrrolizin-7a(5H)-yl)methoxy)-8-(6-methyl-5-(trifluoromethyl)-1H-indazol-4-yl)pyrido[4′,3′:4,5]furo[2,3-d]pyrimidine]
